Measured values as given in patent publication US10221153B2, “Dibenzothiophene compounds” (Saint Louis University, priority 2017, dated 2019).
Entries after “also recorded” stand apart in the source; their conditions may differ. Where two headings read alike, the source gives them in different places.

Legend:
[1] = Photophysical analysis: absorption, excitation and emission at 10 μM (Example 5); assay type: physicochemical; conditions: for λabs / λem / Stokes Shift: acetonitrile at 10 μM; for λex (excitation wavelength): acetonitrile at 10 μM (footnotes a,b); for Stokes Shift: calculated from excitation wavelength; for λex: footnotes a,g: acetonitrile at 10 μM / EtOH at 10 μM
Procedure: (§1) All data were collected on a SHIMAZDU Spectrofluorometer RF-5301PC. Solutions of the respective compounds were prepared in acetonitrile at approximately 1 mM concentration. Solutions (4 mL) were added to a freshly washed quartz cuvette for measurements. The excitation wavelength was varied between 270 nm and 390 nm in 20 nm intervals until the greatest intensity emission was detected. The emission spectra ranges started at 20 nm to the red of the chosen excitation wavelength up to 780 nm. Scan speed was set at “Very Fast” with both the slit widths set to 1.5 mm.
(§2) All data were collected on a SHIMAZDU Spectrofluorometer RF-5301PC. Solutions of the respective compounds were prepared in acetonitrile at approximately 1 mM concentration. Solutions (4 mL) were added to a freshly washed quartz cuvette for measurements. The monitored emission wavelength was set using the high intensity emission from the respective molecule. The scanning range was from 220 nm through 770 nm. Scan speed was set at “Very Fast” with both the slit widths set to 1.5 mm.
Excitation/emission data for compounds 6b, 7b, 8b, 15b, 16b, and 17b were collected using the methods described in Example 3 but using a lower concentration of acetonitrile (10 μM). Compounds 15b, 16b and 17b and their parent molecules (6b, 7b and 8b) all luminesce in the visible range and their optical properties are described in Table 4. […] The wavelength of λex for the excitation scan corresponds to excitation to S1, which leads to emission. This λex for all the molecules were red shifted, or shifted to the direction of longer wavelengths, from the peak absorption by an average 40 nm.

[2] = tested on: HeLa human cervical carcinoma cell line; assay: Cell imaging of HeLa cells incubated with compound, fluorescence microscopy; assay type: cell-based; conditions: 1 μM; for luminescence intensity in cells / location of luminescence in the cell / tracking with chromosomes during mitosis: 120 min; for luminescence intensity in cells: excitation 350 nm, emission approximately 400 nm; for location of luminescence in the cell: merged bright field and UV images
Procedure: HeLa human cervical carcinoma cell line was obtained from ATCC (Manassas, Va.). The cells were cultured in a humidified incubator at 5% CO2 and 37° C. The cell line was grown in D-MEM (Invitrogen) high glucose supplemented with 10.0% fetal bovine serum (Invitrogen, Carlsbad, Calif.) and 1.0% Penicillin/Streptomycin (Invitrogen, Carlsbad, Calif.) for an environment suitable for cell growth. The culture was sub-cultured every three days to maintain normal cell growth.
Sterile glass PDL coated #1.5 cover slips (NeuVitro), pre-incubated with culture medium, were placed in sterile 6-well plates. Single cell suspension of the HeLa (cervical cancer cells taken from patient Henrietta Lacks) cell line was prepared at 5×10^4 cells ml^−1 in the appropriate medium. Volumes of 2.0 mL were pipetted into each of the wells containing the coverslips. The 6-well plate was left overnight at 37.0° C. in a 5.0% CO2 incubator. Following the overnight incubation, the plate was aspirated dry and then fresh culture medium, containing the drug (at 1.0 μM and 0.10% DMSO) in a volume of 2.0 mL, was gently pipetted onto the cell monolayers attached to the glass cover slips. Cells on the cover slips were exposed to the drug for approximately 2 hours. Cells were washed with PBS and treated with 4.0% paraformaldehyde solution prepared in PBS, incubated for 30 minutes at room temperature for […]. Several washes with PBS were completed to ensure excess solution was rinsed away. Glass cover slips were removed and mounted on slides with ProLong Gold Antifade Mountant (ThermoFisher Scientific). The specimen was dried for several minutes and sealed with clear nail polish before visualized under a microscope
Cell Image Captures: All images were captured with a Leica DM 4000 B microscope with a DFC3000G camera (Leica Microsystems, Germany) and 63× oil immersion lens. HeLa cells were staged according to the method above. Leica LASX Core Software (Leica Microsystems, Germany) was used to acquire the images.
Stained cells were clearly observed by exciting the cells with a broadly emitting lamp using DAPI filter set. Luminescence was observed within the cell bodies of the HeLa cells upon excitation of the UV wavelengths. The excitation wavelength was 350 nm and the emission wavelength was approximately 400 nm. FIG. 14 depicts representative images of HeLa cervical cancer cell lines incubated with Compounds 16b, 15b, and 17b (1 μM) for 120 min. Bright field images of cells incubated with compounds 16b, 15b, and 17b are shown in Panels A, D, and G, respectively. Luminescence from each compound (16b, 15b, and 17b) is shown in Panels B, E, and H, respectively, with UV laser radiation.

HeLa cells = assay: Anti-proliferation (MTS) assay, HeLa cells, 72 hours; assay type: cell-based, human; conditions: 1 nM to 100 μM
Procedure: To determine whether long-term exposure to each compound could be toxic to cells, Hela cells were treated with varying concentrations of Compounds 16b, 15b and 17b for 72 hours. An anti-proliferation protocol was carried out by testing chosen compounds on the growth of the human cervical cancer cell lines. HeLa cells were cultured in their respective media supplemented with 10.0% FBS (fetal bovine serum) and 1.0% Pen/Strep. Cells (1,000 cells/100 μL per well) were plated in a 96-well culture plate (TC treated, Greiner) and incubated for 24 h. 50 μL (DMSO <1%) of the compound at final concentrations 100 μM, 10 μM, 1 μM, 100 nM, 10 nM, and 1 nM were added to the appropriate wells. Triplicates wells were performed for each compound, on three identical plates.
After incubation of the cells, at 37° C. in a humidified atmosphere of 5% CO2 for 72 hours, the cells were stained and incubated with MTS (3-(4,5-dimethylthiazol-2-yl)-5-(3-carboxymethoxyphenyl)-2-(4-sulfophenyl)-2H-tetrazolium) reagent in the presence of PMS (phenazine methosulfate) reagent for 2 hours to determine cell viability. An MTS assay is based on the reduction of the MTS tetrazolium compound by viable cells to generate a colored formazan dye that is soluble in cell culture media. The absorbance of each well was taken at 490 nm using a multimode plate reader (FlexStation 3, Molecular Devices, San Diego, Calif.). GraphPad Prism was used to analyze transposed data to determine the percent viability. […] Each compound was tested in at least triplicate.

[3] = Photophysical analysis: absorption, excitation and emission at 10 μM (Example 5); assay type: physicochemical; conditions: EtOH at 10 μM
[4] = Quantum yield by single-point method; conditions: single-point method in EtOH
[5] = Emission and excitation scans on spectrofluorometer, approximately 1 mM in acetonitrile (Example 3); assay type: physicochemical
Procedure: General Procedure for Emission and Excitation Data Collection:
as §1, §2

[6] = cell footnote a: acetonitrile at 10 μM

log εex (molar extinction coefficient at excitation wavelength) [1] | λabs [1] | λem [1] | λex (excitation wavelength) [1] | Stokes Shift [1] | λex [1] | log εmax (maximum molar extinction coefficient) [3] | λem [3] | φ (quantum yield) [4] | log εex (molar extinction coefficient at excitation wavelength) [1, 6] | log εmax (maximum molar extinction coefficient) [1, 6] | emission wavelength (emitted at) [5] | excitation wavelength (excited at) [5] | SMILES | luminescence intensity in cells [2] | location of luminescence in the cell [2] | effect on cell morphology ([2]; FIG. 14 panel G) | cytotoxicity / decrease in cell viability (HeLa cells) | tracking with chromosomes during mitosis [2] | luminescence colour [5]
4.36 M^−1 cm^−1 | 250 nm | 421 nm | 274 nm | 147 nm | 274 nm | 4.67 M^−1 cm^−1 | 428 nm | 0.55 |  |  |  |  | O=S(=O)([O-])c1ccc2c(c1)-c1cc(-c3cccc4ccccc34)ccc1S2(=O)=O.[Na+] [Compound 17b, sodium 8-(naphthalen-1-yl)dibenzo[b,d]thiophene-2-sulfonate 5,5-dioxide] | slight luminescence | luminescence is clearly identified within the nucleus of the cell | seemed to influence the morphology of HeLa cells | do not show any decrease in cell viability at any concentration tested; also recorded: no observed cytotoxicity |  | 
 | 246 nm | 412 nm | 287 nm | 125 nm | 284 nm |  | 422 nm | 0.29 | 2.48^a M^−1 cm^−1 | 4.75^a M^−1 cm^−1 |  |  | O=S(=O)([O-])c1ccc2c(c1)-c1cc(-c3ccc(-c4ccccc4)cc3)ccc1S2(=O)=O.[Na+] [Compound 16b, sodium 8-([1,1′-biphenyl]-4-yl)dibenzo[b,d]thiophene-2-sulfonate 5,5-dioxide] | intense luminescence | luminescence is clearly identified within the nucleus of the cell |  | begins to show some degree of toxicity at 100 μM; also recorded: low cytotoxicity | track with chromosomes during mitosis | 
 |  |  |  |  |  |  |  |  |  |  | 477 nm | 365 nm | O=S(=O)(Oc1ccccc1)c1ccc2c(c1)c1cc(-c3ccc(-c4ccccc4)cc3)ccc1[s+]2[O-] (stereo not shown) [Compound 8a, phenyl 8-([1,1′-biphenyl]-4-yl)dibenzo[b,d]thiophene-2-sulfonate 5-oxide] |  |  |  |  |  | luminesced in either a deep blue or near blue wavelength
4.45 M^−1 cm^−1 | 238 nm | 426 nm | 274 nm | 152 nm | 275 nm | 4.69 M^−1 cm^−1 | 434 nm | 0.05 |  |  | about 437 nm | 344 nm | O=S(=O)(Oc1ccccc1)c1ccc2c(c1)-c1cc(-c3ccccc3)ccc1S2(=O)=O [Compound 6b, phenyl 8-phenyldibenzo[b,d]thiophene-2-sulfonate 5,5-dioxide] |  |  |  |  |  | luminesced in either a deep blue or near blue wavelength
4.51 M^−1 cm^−1 | 243 nm | 492 nm | 274 nm | 218 nm | 274 nm | 4.79 M^−1 cm^−1 | 486 nm | 0.15 |  |  | 499 nm | 367 nm | O=S(=O)(Oc1ccccc1)c1ccc2c(c1)-c1cc(-c3cccc4ccccc34)ccc1S2(=O)=O [Compound 7b, phenyl 8-(naphthalen-1-yl)dibenzo[b,d]thiophene-2-sulfonate 5,5-dioxide] |  |  |  |  |  | luminesced in either a deep blue or near blue wavelength
4.17 M^−1 cm^−1 | 243 nm | 485 nm | 283 nm | 202 nm | 286 nm | 4.59 M^−1 cm^−1 | 478 nm | 0.59 |  |  | 475 nm | 366 nm | O=S(=O)(Oc1ccccc1)c1ccc2c(c1)-c1cc(-c3ccc(-c4ccccc4)cc3)ccc1S2(=O)=O [Compound 8b, phenyl 8-([1,1′-biphenyl]-4-yl)dibenzo[b,d]thiophene-2-sulfonate 5,5-dioxide] |  |  |  |  |  | luminesced in either a deep blue or near blue wavelength
 |  |  |  |  |  |  |  |  |  |  |  |  | O=S(=O)(Oc1ccccc1)c1ccc2c(c1)c1cc(-c3cccc4ccccc34)ccc1[s+]2[O-] (stereo not shown) [Compound 7a, phenyl 8-(naphthalen-1-yl)dibenzo[b,d]thiophene-2-sulfonate 5-oxide] |  |  |  |  |  | luminesced in either a deep blue or near blue wavelength

SMILES | log εex (molar extinction coefficient at excitation wavelength) [1] | λabs [1] | λem [1] | λex (excitation wavelength) [1] | Stokes Shift [1] | λex [1] | log εmax (maximum molar extinction coefficient) [3] | λem [3] | φ (quantum yield) [4] | log εex (molar extinction coefficient at excitation wavelength) [1, 6] | log εmax (maximum molar extinction coefficient) [1, 6] | emission wavelength (emitted at) [5] | excitation wavelength (excited at) [5] | luminescence intensity in cells [2] | location of luminescence in the cell [2] | effect on cell morphology ([2]; FIG. 14 panel G) | cytotoxicity / decrease in cell viability (HeLa cells) | tracking with chromosomes during mitosis [2] | luminescence colour [5]
O=S(=O)([O-])c1ccc2c(c1)-c1cc(-c3ccccc3)ccc1S2(=O)=O.[Na+] [Compound 15b, sodium 8-phenyldibenzo[b,d]thiophene-2-sulfonate 5,5-dioxide] | 4.4 M^−1 cm^−1 | 248 nm | 371 nm | 268 nm | 103 nm | 274 nm | 4.67 M^−1 cm^−1 | 380 nm | 0.07 |  |  |  |  | intense luminescence | luminescence is clearly identified within the nucleus of the cell |  | do not show any decrease in cell viability at any concentration tested; also recorded: low cytotoxicity | track with chromosomes during mitosis | 
